“Also recorded” adds a separate entry of the source. Structures can show the parent of a compound that is named as a salt.
Legend:
manna grass = test: Experiment 1 foliar application to naturally growing weeds; format: in vivo, Digitaria adsceudes Henr.; settings: for Reproduction-inhibiting effect: 2 months; for Killing index of Upperground parts: 21 days
From the text: (§1) The detail of the assessment made in the following Experiments of the invention was as follows:
(§2) Four months after treatment, evaluation was made for inhibition of reproduction expressed in terms of symbols ranging from (-) to (+++) where (-) means no reproduction, namely complete suppression of reproduction, (±) remarkable suppression of reproduction; (+) considerable suppression of reproduction; (++) medium supprestion of reproduction; and (+++) no suppression of reproduction.
(§3) The compounds of the invention and other compounds for comparison listed in Table 3 were diluted to prescribed concentrations and sprayed to naturally growing weeds by foliar application in an amount of 150 liter per 10 are.
(§4) 0.1% of octylphenyl polyoxyethanol was added as a surfactant.
(§5) The killing index (0, no effect, 5, death) after 21 days, and the reproduction-inhibiting effect (-, no reproduction; +++, maximum reproduction) after 2 months (manna grass and cockspar grass) and 4 months (other weeds) were determined.

white clover = test: as above; format: in vivo, Trifolium repens L.; settings: for Reproduction-inhibiting effect: 4 months
From the text: as §1, §2, §3, §4, §5

yamazakura = test: Experiment 3 foliar application to naturally growing shrubs; format: in vivo, Prunus donarium Sieb. var. spontanae Makino; settings: after 3 months
From the text: as §1, §2
(§6) The compounds of the invention and other compounds listed in Table 5. were diluted to prescribed concentrations and sprayed onto naturally growing shrubs by foliar application in an amount of 150 liter per 10 are.
(§7) 0.1% of octylphenyl polyoxyethanol was added as the surfactant. The killing index (0, no effect; 5, death) after 1 month and 3 months, and the reproduction-inhibiting effect (-, no reproduction; +++, maximum reproduction) after 3 months were determined.

eulalia = test: Experiment 2 foliar application in Japanese cypress afforested land; format: in vivo, Miscanthus sinensis Andress.; set-up: key: 0 = no effect, 5 = death
Procedure: as §1
(§8) The compounds of the invention and other compounds listed in Table 4. were diluted to prescribed concentrations and sprayed to shrubs by foliar application in a Japanese cypress afforested land in an amount of 150 liter per 10 are.
(§9) After 30 days and 3 months, the killing index (0, no effect; 5, death) was determined.
(§10) The heights of plants were 50-70 cm. for Japanese cypress, about 50 cm. for chestnut, 50-90 cm. for miyakozasa, about 100 cm. for eulalia and 70-100 cm. for kumaichigo, respectively.

purple nutsedge = test: Experiment 1 foliar application to naturally growing weeds; format: in vivo, Cyperus rotundus L.; settings: 4 months
From the text: as §1, §2, §3, §4, §5

hedge bindweed = test: as above; format: in vivo, Calystegis hederacea Wall.; settings: 4 months
From the text: as §1, §2, §3, §4, §5

warunasubi = test: as above; format: in vivo, Solanum carolinensis L.; settings: 4 months
From the text: as §1, §2, §3, §4, §5

azumanezasa = test: as above; format: in vivo, Pleioblastus Chino Makino; settings: for Reproduction-inhibiting effect: 4 months; for Killing index of Upperground parts: 21 days
From the text: as §1, §2, §3, §4, §5

Japanese prickly ash = test: Experiment 3 foliar application to naturally growing shrubs; format: in vivo, Xanthoxylum piperitum DC.; settings: after 3 months
From the text: as §1, §2, §6, §7

yabugarashi = test: Experiment 1 foliar application to naturally growing weeds; format: in vivo, Cayratia japonica Houtt.; settings: 4 months
From the text: as §1, §2, §3, §4, §5

lace shrub = test: Experiment 3 foliar application to naturally growing shrubs; format: in vivo, Stephanandra incisa Zabel; settings: for Reproduction-inhibiting: after 3 months
From the text: as §1, §2, §6, §7

oak = test: as above; format: in vivo, Quercus serrata Thunb; settings: after 3 months
From the text: as §1, §2, §6, §7

chigaya = test: Experiment 1 foliar application to naturally growing weeds; format: in vivo, Imperata cylindrica Beauv.; settings: 4 months
From the text: as §1, §2, §3, §4, §5

miyakozasa = test: Experiment 2 foliar application in Japanese cypress afforested land; format: in vivo, Sasa nipponica Makino et Shibata; settings: 0.25%
Procedure: as §1, §8, §9, §10

torch azalea = test: Experiment 3 foliar application to naturally growing shrubs; format: in vivo, Rhododendoron Kaempferi Planch.; settings: after 3 months
From the text: as §1, §2, §6, §7

Japanese bush cranberry = test: as above; format: in vivo, Viburnum dilatatum Thunb.; settings: after 3 months
From the text: as §1, §2, §6, §7

kiichigo = test: as above; format: in vivo, Rubus palmatsu Thunb. forma coptophyllus Makino
From the text: as §1, §2, §6, §7

cockspar grass = test: Experiment 1 foliar application to naturally growing weeds; format: in vivo, Echinochloa Crusgalli P. Beauv.; settings: for Reproduction-inhibiting effect: 2 months; for Killing index of Upperground parts: 21 days
From the text: as §1, §2, §3, §4, §5

water hyacinth = test: Experiment 5 foliar application to water hyacinths; format: in vivo, Eichhornia crassipes Solms; settings: 3 months
From the text: as §1, §2
Water was placed in 20 cm.×30 cm. plastic vessels and a liquid fertilizer was added thereto. Two water hyacinths were floated in each vessel.
0.1 or 0.2% aqueous solutions of each of the compounds of the invention listed in Table 7 were sprayed by foliar application in an amount of 100 liter per 10 are. As a surfactant, 0.1% of octylphenyl polyoxyethanol was added.
The killing index (0, no effect; 5, death) after 21 days and 3 months, and the reproduction-inhibiting effect (-, no reproduction; +++, maximum reproduction) after 3 months were determined.

kumaichigo = test: Experiment 2 foliar application in Japanese cypress afforested land; format: in vivo, Rubus crataegifolius Bunge; settings: 0.125%; after 30 days; monosodium salt
Procedure: as §1, §8, §9, §10

weeds and shrubs = settings: background statement; cited from earlier work
[1] = 0.05%, after 30 days, monosodium salt
[2] = 0.05%, after 3 months, monosodium salt

C[C@H](NC(=O)[C@H](C)NC(=O)[C@@H](N)CCP(C)(=O)O)C(=O)O [(L-2-Amino-4-methylphosphinobutyryl)-L-alanyl-L-alanine mono] [(L-2-Amino-4-methylphosphinobutyryl)-L-alanyl-L-alanine monodiethanolammonium salt]
Reproduction-inhibiting effect (manna grass; 0.05%): +++
Reproduction-inhibiting effect (manna grass; 0.1%): ++
Killing index of Upperground parts (manna grass; 0.1%): 3.5
Reproduction-inhibiting effect (manna grass; 0.2%): -
Killing index of Upperground parts (manna grass; 0.2%): 4.5
Reproduction-inhibiting effect (white clover; 0.05%): +++
Reproduction-inhibiting effect (white clover; 0.1%): +++
Reproduction-inhibiting effect (white clover; 0.2%): -
Reproduction-inhibiting (yamazakura; 0.05%): +++
Reproduction-inhibiting (yamazakura; 0.1%): ++
Reproduction-inhibiting (yamazakura; 0.2%): -
Killing index (eulalia; 0.25%, after 3 months): 4.5
Killing index (eulalia; 0.25%, after 30 days): 4.5
Reproduction-inhibiting effect (purple nutsedge; 0.05%): +++
Reproduction-inhibiting effect (purple nutsedge; 0.1%): +++
Reproduction-inhibiting effect (purple nutsedge; 0.2%): +
Reproduction-inhibiting effect (hedge bindweed; 0.05%): +++
Reproduction-inhibiting effect (hedge bindweed; 0.1%): +++
Reproduction-inhibiting effect (hedge bindweed; 0.2%): +++
Reproduction-inhibiting effect (warunasubi; 0.05%): +++
Reproduction-inhibiting effect (warunasubi; 0.1%): +++
Reproduction-inhibiting effect (warunasubi; 0.2%): +
Reproduction-inhibiting effect (azumanezasa; 0.05%): +++
Reproduction-inhibiting effect (azumanezasa; 0.1%): +
Reproduction-inhibiting effect (azumanezasa; 0.2%): -
Reproduction-inhibiting (Japanese prickly ash; 0.05%): +++
Reproduction-inhibiting (Japanese prickly ash; 0.1%): +
Reproduction-inhibiting (Japanese prickly ash; 0.2%): -
Reproduction-inhibiting effect (yabugarashi; 0.05%): +++
Reproduction-inhibiting effect (yabugarashi; 0.1%): ++
Reproduction-inhibiting effect (yabugarashi; 0.2%): ±
Reproduction-inhibiting (lace shrub; 0.05%): +++
Reproduction-inhibiting (lace shrub; 0.1%): ++
Reproduction-inhibiting (lace shrub; 0.2%): -
Reproduction-inhibiting (oak; 0.05%): +++
Reproduction-inhibiting (oak; 0.1%): ++
Reproduction-inhibiting (oak; 0.2%): -
Reproduction-inhibiting effect (chigaya; 0.05%): +++
Reproduction-inhibiting effect (chigaya; 0.1%): ++
Reproduction-inhibiting effect (chigaya; 0.2%): -
Killing index (miyakozasa; after 3 months): 4.5
Killing index (miyakozasa; after 30 days): 4.5
Reproduction-inhibiting (torch azalea; 0.05%): +++
Reproduction-inhibiting (torch azalea; 0.1%): ++
Reproduction-inhibiting (torch azalea; 0.2%): -
Reproduction-inhibiting (Japanese bush cranberry; 0.05%): +++
Reproduction-inhibiting (Japanese bush cranberry; 0.1%): +
Reproduction-inhibiting (Japanese bush cranberry; 0.2%): -
Reproduction-inhibiting (kiichigo; 0.05%, after 3 months): +++
Reproduction-inhibiting (kiichigo; 0.1%, after 3 months): +
Reproduction-inhibiting (kiichigo; 0.2%, after 3 months): -
Reproduction-inhibiting effect (cockspar grass; 0.05%): +++
Reproduction-inhibiting effect (cockspar grass; 0.1%): ++
Killing index of Upperground parts (cockspar grass; 0.1%): 3.5
Reproduction-inhibiting effect (cockspar grass; 0.2%): -
Killing index of Upperground parts (cockspar grass; 0.2%): 4.5

CP(=O)(O)CC[C@H](N)C(=O)O [L-2-Amino-4-methylphosphinobutanoic acid monosodium salt]
Reproduction-inhibiting effect (manna grass; 0.05%, monosodium salt): ++
Reproduction-inhibiting effect (manna grass; 0.1%, monosodium salt): ±
Killing index of Upperground parts (manna grass; 0.1%, monosodium salt): 4.5
Reproduction-inhibiting effect (manna grass; 0.2%): -
Reproduction-inhibiting effect (white clover; 0.05%, monosodium salt): +++
Reproduction-inhibiting effect (white clover; 0.1%, monosodium salt): +
Killing index of Upperground parts (white clover; 0.1%, 21 days, monosodium salt): 4.5
Reproduction-inhibiting effect (white clover; 0.2%): -
Killing index (yamazakura; 0.05%, monosodium salt): 1.5
Reproduction-inhibiting (yamazakura; 0.05%, monosodium salt): ++
Reproduction-inhibiting (yamazakura; 0.1%): -
Reproduction-inhibiting (yamazakura; 0.2%): -
Killing index (eulalia; 0.125%, after 3 months, monosodium salt): 4.5
Killing index (eulalia; 0.125%, after 30 days, monosodium salt): 3.5
Reproduction-inhibiting effect (water hyacinth; 0.1%, listed as L-AMPB monosodium salt, monosodium salt): ±
Reproduction-inhibiting effect (water hyacinth; 0.2%): -
Killing index (kumaichigo): 4.5
Reproduction-inhibiting effect (purple nutsedge; 0.05%, monosodium salt): +++
Reproduction-inhibiting effect (purple nutsedge; 0.1%, monosodium salt): +
Reproduction-inhibiting effect (purple nutsedge; 0.2%, monosodium salt): ±
Reproduction-inhibiting effect (hedge bindweed; 0.05%, monosodium salt): +++
Reproduction-inhibiting effect (hedge bindweed; 0.1%, monosodium salt): ++
Reproduction-inhibiting effect (hedge bindweed; 0.2%, monosodium salt): +
Reproduction-inhibiting effect (warunasubi; 0.05%, monosodium salt): +++
Reproduction-inhibiting effect (warunasubi; 0.1%, monosodium salt): +
Reproduction-inhibiting effect (warunasubi; 0.2%, monosodium salt): ±
Reproduction-inhibiting effect (azumanezasa; 0.05%, monosodium salt): ++
Killing index of Upperground parts (azumanezasa; 0.05%, monosodium salt): 2.5
Reproduction-inhibiting effect (azumanezasa; 0.1%): -
Killing index of Upperground parts (azumanezasa; 0.1%, monosodium salt): 4.5
Reproduction-inhibiting effect (azumanezasa; 0.2%): -
Reproduction-inhibiting (Japanese prickly ash; 0.05%, monosodium salt): +++
Reproduction-inhibiting (Japanese prickly ash; 0.1%, monosodium salt): +
Reproduction-inhibiting (Japanese prickly ash; 0.2%): -
Reproduction-inhibiting effect (yabugarashi; 0.05%, monosodium salt): ++
Reproduction-inhibiting effect (yabugarashi; 0.1%, monosodium salt): +
Reproduction-inhibiting effect (yabugarashi; 0.2%, monosodium salt): ±
Reproduction-inhibiting (lace shrub; 0.05%, monosodium salt): ++
Killing index (lace shrub; [1]): 3.5
Reproduction-inhibiting (lace shrub; 0.1%): -
Reproduction-inhibiting (lace shrub; 0.2%): -
Reproduction-inhibiting (oak; 0.05%, monosodium salt): ++
Reproduction-inhibiting (oak; 0.1%): -
Reproduction-inhibiting (oak; 0.2%): -
Reproduction-inhibiting effect (chigaya; 0.05%, monosodium salt): ++
Reproduction-inhibiting effect (chigaya; 0.1%): -
Reproduction-inhibiting effect (chigaya; 0.2%): -
Reproduction-inhibiting (torch azalea; 0.05%, monosodium salt): +++
Reproduction-inhibiting (torch azalea; 0.1%): -
Reproduction-inhibiting (torch azalea; 0.2%): -
Reproduction-inhibiting (Japanese bush cranberry; 0.05%, monosodium salt): +++
Reproduction-inhibiting (Japanese bush cranberry; 0.1%, monosodium salt): ++
Reproduction-inhibiting (Japanese bush cranberry; 0.2%): -
Killing index (kiichigo; [2]): 1.5
Reproduction-inhibiting (kiichigo; [2]): ++
Killing index (kiichigo; [1]): 3.5
Reproduction-inhibiting (kiichigo; 0.1%, after 3 months): -
Reproduction-inhibiting (kiichigo; 0.2%, after 3 months): -
Reproduction-inhibiting effect (cockspar grass; 0.05%, monosodium salt): ++
Reproduction-inhibiting effect (cockspar grass; 0.1%, monosodium salt): ±
Killing index of Upperground parts (cockspar grass; 0.1%, monosodium salt): 4.5
Reproduction-inhibiting effect (cockspar grass; 0.2%): -

O=C([O-])C(F)(F)C(F)F.[Na+] [sodium 2,2,3,3-tetrafluoropropionate]
Reproduction-inhibiting (yamazakura; 0.1%): +++
Reproduction-inhibiting (yamazakura; 0.2%): +++
Reproduction-inhibiting (yamazakura; 0.4%): +++
Killing index (eulalia; 0.5%, after 30 days): 4.5
weeding effects of known herbicides in words (weeds and shrubs): effective for eulalia and bamboo grass; also recorded: not so effective for shrubs
Reproduction-inhibiting (Japanese prickly ash; 0.1%): +++
Reproduction-inhibiting (Japanese prickly ash; 0.2%): +++
Reproduction-inhibiting (Japanese prickly ash; 0.4%): +++
Reproduction-inhibiting (lace shrub; 0.1%): +++
Reproduction-inhibiting (lace shrub; 0.2%): +++
Reproduction-inhibiting (lace shrub; 0.4%): +++
Reproduction-inhibiting (oak; 0.1%): +++
Reproduction-inhibiting (oak; 0.2%): +++
Reproduction-inhibiting (oak; 0.4%): +++
Reproduction-inhibiting (torch azalea; 0.1%): +++
Reproduction-inhibiting (torch azalea; 0.2%): +++
Reproduction-inhibiting (torch azalea; 0.4%): +++
Reproduction-inhibiting (Japanese bush cranberry; 0.1%): +++
Reproduction-inhibiting (Japanese bush cranberry; 0.2%): +++
Reproduction-inhibiting (Japanese bush cranberry; 0.4%): +++
Reproduction-inhibiting (kiichigo; 0.1%, after 3 months): +++
Reproduction-inhibiting (kiichigo; 0.2%, after 3 months): +++
Reproduction-inhibiting (kiichigo; 0.4%, after 3 months): +++
